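Compound exposure: 48 hours, 5 concentrations, 96-well plates. GI50 = concentration required for 50% inhibition of growth.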 Calls of active or inactive are those of the source. No stated cut-off is given here; in the data, active = GI50 up to about 1.1 µM and inactive = higher.
Tests used:
Experiment in all cases: NCI anticancer screen, dose series, 48 h
UACC-257 = tested on: UACC-257
DU-145 = tested on: DU-145
Malme-3M = tested on: Malme-3M
RXF 393 = tested on: RXF 393
OVCAR-4 = tested on: OVCAR-4
ACHN = tested on: ACHN
MDA-N = tested on: MDA-N
NCI-H522 = tested on: NCI-H522
HOP-62 = tested on: HOP-62
SF-539 = tested on: SF-539
SK-MEL-5 = tested on: SK-MEL-5
MDA-MB-231 = tested on: MDA-MB-231
NCI-H226 = tested on: NCI-H226
Hs-578T = tested on: Hs-578T
COLO 205 = tested on: COLO 205
HOP-92 = tested on: HOP-92
OVCAR-5 = tested on: OVCAR-5
MCF7 = tested on: MCF7
KM12 = tested on: KM12
MOLT-4 = tested on: MOLT-4

Measured: GI50

Cc1ccc(-n2cc(-c3ccc(Cl)cc3)c3c2N=CN2N=C(c4cccs4)NC32)cc1 (centres undefined)
inactive: UACC-257 38.9 µM | DU-145 > 100 µM | Malme-3M 38.4 µM | RXF 393 12.4 µM | OVCAR-4 2.21 µM | ACHN 5.07 µM | MDA-N 26.8 µM | NCI-H522 21.6 µM | HOP-62 15.7 µM | SF-539 16.2 µM | SK-MEL-5 > 100 µM | MDA-MB-231 4.52 µM | NCI-H226 19.3 µM | Hs-578T 2.07 µM | COLO 205 6.71 µM | HOP-92 7.64 µM | OVCAR-5 11.1 µM | MCF7 32.5 µM

CC(C)(C)C(=O)Nc1cccc(-c2ccc[nH]2)n1
inactive: UACC-257 > 84.9 µM | KM12 > 100 µM | DU-145 > 100 µM | Malme-3M > 100 µM | RXF 393 > 100 µM | OVCAR-4 > 55.6 µM | ACHN > 100 µM | MDA-N > 100 µM | NCI-H522 > 75 µM | HOP-62 > 100 µM | SF-539 > 100 µM | SK-MEL-5 68.7 µM | MDA-MB-231 > 65 µM | NCI-H226 > 100 µM | Hs-578T 22.7 µM | COLO 205 > 100 µM | HOP-92 > 100 µM | OVCAR-5 > 100 µM | MCF7 > 100 µM

CCN(CC)CCOc1ccc(N2Cc3ccccc3C2=O)cc1
inactive: UACC-257 > 10 µM | DU-145 > 10 µM | Malme-3M > 10 µM | RXF 393 > 10 µM | OVCAR-4 > 10 µM | ACHN > 10 µM | MDA-N > 10 µM | NCI-H522 > 10 µM | HOP-62 > 10 µM | SF-539 > 10 µM | SK-MEL-5 > 10 µM | MOLT-4 > 10 µM | MDA-MB-231 > 10 µM | NCI-H226 > 10 µM | Hs-578T > 10 µM | COLO 205 > 10 µM | HOP-92 > 10 µM | OVCAR-5 > 10 µM | MCF7 > 10 µM

CCOc1ccccc1/N=N/C1C(=O)N(C(=O)CC(=O)Nc2ccccc2C)N=C1C (centres undefined)
inactive: KM12 > 100 µM | DU-145 79.3 µM | Malme-3M > 100 µM | RXF 393 25.4 µM | OVCAR-4 > 100 µM | ACHN > 100 µM | MDA-N > 100 µM | NCI-H522 61.2 µM | HOP-62 19.9 µM | SF-539 56 µM | SK-MEL-5 > 100 µM | MOLT-4 > 100 µM | MDA-MB-231 37.8 µM | NCI-H226 > 100 µM | Hs-578T 6.55 µM | COLO 205 > 100 µM | HOP-92 17.1 µM | OVCAR-5 > 100 µM | MCF7 > 100 µM

COc1cc(S(=O)(=O)Nc2nc(-c3ccc(N4C(=O)CSC4c4cccs4)cc3)cs2)ccc1Cl (centres undefined)
inactive: UACC-257 71 µM | KM12 75.5 µM | DU-145 > 100 µM | Malme-3M > 100 µM | RXF 393 24.1 µM | OVCAR-4 31.3 µM | ACHN > 100 µM | MDA-N 43.4 µM | NCI-H522 30.9 µM | HOP-62 > 100 µM | SF-539 49.7 µM | SK-MEL-5 > 100 µM | MOLT-4 22.1 µM | MDA-MB-231 > 100 µM | NCI-H226 > 100 µM | Hs-578T 97.1 µM | COLO 205 > 100 µM | HOP-92 36.6 µM | OVCAR-5 > 100 µM | MCF7 43.5 µM

CCOC(=O)/C=C(\C(=O)OCC)n1cc(Cl)c(=O)n(CC(=O)OCC)c1=O
inactive: UACC-257 2.96 µM | KM12 18.2 µM | DU-145 17 µM | Malme-3M 1.57 µM | RXF 393 1.69 µM | OVCAR-4 15.2 µM | ACHN 1.63 µM | MDA-N 11.3 µM | HOP-62 18 µM | SF-539 14 µM | SK-MEL-5 15.7 µM | MOLT-4 1.91 µM | MDA-MB-231 16 µM | NCI-H226 16.4 µM | Hs-578T 23.7 µM | HOP-92 1.85 µM | OVCAR-5 18.1 µM | MCF7 2.62 µM
active: NCI-H522 0.78 µM | COLO 205 0.697 µM

O=C1NC(N2CCCC(CO)C2)=N/C1=C\c1ccc(Cl)cc1 (centres undefined)
inactive: UACC-257 > 100 µM | KM12 63.7 µM | DU-145 > 100 µM | Malme-3M > 100 µM | RXF 393 > 100 µM | OVCAR-4 > 100 µM | ACHN > 100 µM | MDA-N > 100 µM | NCI-H522 > 100 µM | HOP-62 > 100 µM | SF-539 > 100 µM | SK-MEL-5 > 100 µM | MOLT-4 > 100 µM | MDA-MB-231 > 100 µM | NCI-H226 > 100 µM | Hs-578T > 100 µM | COLO 205 > 100 µM | HOP-92 90.8 µM | OVCAR-5 > 100 µM | MCF7 > 100 µM

CCOP(=O)(OCC)C1CC(n2cc(C)c(=O)[nH]c2=O)OC1CO (centres undefined)
inactive: UACC-257 > 100 µM | KM12 > 100 µM | DU-145 > 100 µM | Malme-3M > 100 µM | RXF 393 > 100 µM | OVCAR-4 > 100 µM | ACHN > 100 µM | MDA-N > 100 µM | NCI-H522 83.8 µM | HOP-62 > 100 µM | SF-539 > 100 µM | SK-MEL-5 > 100 µM | MOLT-4 > 100 µM | MDA-MB-231 > 100 µM | NCI-H226 > 100 µM | Hs-578T > 100 µM | HOP-92 > 100 µM | OVCAR-5 83.4 µM | MCF7 > 100 µM

Cc1ccc(C(=O)Nc2ccc(CP(=O)(O)O)cc2CP(=O)(O)O)cc1N
inactive: UACC-257 > 100 µM | KM12 > 100 µM | DU-145 > 100 µM | Malme-3M > 100 µM | RXF 393 > 100 µM | OVCAR-4 > 100 µM | ACHN > 100 µM | MDA-N > 100 µM | NCI-H522 > 100 µM | HOP-62 > 100 µM | SF-539 > 100 µM | SK-MEL-5 > 100 µM | MOLT-4 > 100 µM | MDA-MB-231 > 100 µM | NCI-H226 > 100 µM | Hs-578T > 100 µM | COLO 205 > 100 µM | HOP-92 > 100 µM | OVCAR-5 > 100 µM | MCF7 > 100 µM

COc1ccc(C(C)NNC(=O)c2cc[n+]([BH2-]C#N)cc2)cc1OC (centres undefined)
inactive: UACC-257 > 100 µM | KM12 > 100 µM | DU-145 > 100 µM | Malme-3M > 100 µM | RXF 393 > 100 µM | OVCAR-4 > 100 µM | ACHN > 100 µM | MDA-N > 100 µM | NCI-H522 > 100 µM | HOP-62 > 100 µM | SF-539 > 100 µM | SK-MEL-5 > 100 µM | MOLT-4 > 100 µM | MDA-MB-231 > 100 µM | NCI-H226 > 100 µM | Hs-578T > 100 µM | COLO 205 > 100 µM | HOP-92 > 100 µM | OVCAR-5 > 100 µM | MCF7 > 100 µM
